Read-outs that look alike come from different tables or passages of the source.
Tests used:
[1] = molecular target: T1, recombinant human transglutaminase 2 (Homo sapiens, UniProt P21980); experiment: Transglutaminase assay: incorporation of dansylcadaverine into dimethylcasein (DCC-assay); assay type: biochemical
T1 sequence (P21980 1-687): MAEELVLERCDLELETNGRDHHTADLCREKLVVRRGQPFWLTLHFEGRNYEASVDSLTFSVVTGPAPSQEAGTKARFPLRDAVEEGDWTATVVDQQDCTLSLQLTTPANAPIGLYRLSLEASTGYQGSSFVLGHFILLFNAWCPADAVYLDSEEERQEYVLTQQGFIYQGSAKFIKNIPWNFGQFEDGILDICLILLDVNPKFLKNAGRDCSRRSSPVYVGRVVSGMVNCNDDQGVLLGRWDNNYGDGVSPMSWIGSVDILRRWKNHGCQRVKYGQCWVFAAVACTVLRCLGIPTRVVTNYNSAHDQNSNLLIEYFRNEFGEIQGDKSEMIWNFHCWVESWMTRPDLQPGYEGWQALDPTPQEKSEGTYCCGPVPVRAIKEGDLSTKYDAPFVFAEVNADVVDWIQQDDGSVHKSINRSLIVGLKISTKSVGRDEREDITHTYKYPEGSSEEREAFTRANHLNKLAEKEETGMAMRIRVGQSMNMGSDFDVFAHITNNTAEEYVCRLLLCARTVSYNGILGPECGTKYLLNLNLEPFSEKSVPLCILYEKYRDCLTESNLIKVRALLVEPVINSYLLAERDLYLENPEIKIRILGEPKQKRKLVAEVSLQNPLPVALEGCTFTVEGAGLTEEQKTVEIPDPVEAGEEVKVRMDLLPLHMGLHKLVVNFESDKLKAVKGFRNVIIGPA
Method in brief: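 Recombinant human TG2 (10 nM final) incorporates dansylcadaverine (16.7 μM) into N,N-dimethylcasein (4 μM) in Tris-HCl buffer, pH 8.0, with 10 mM CaCl2 and 10 mM glutathione. Fluorescence (λex 330, λem 500 nm) followed 30 min. The slope between 20–30 min gives activity versus DMSO control, and IC50 comes from the concentration–activity plot.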

[2] = Log D by shake flask method (octanol / PBS pH 7.4, HPLC); assay type: physicochemical; settings: octanol / PBS pH 7.4, shake flask; read-out: logD
Method in brief: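 Log D is derived by HPLC measurement of how the compound distributes between octanol and pH 7.4 phosphate-buffered saline in a shake flask.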

[3] = Caco-2 permeability assay (CacoReady kit); assay type: in vitro ADME; settings: human
Method in brief: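 Intestinal permeability modelled with kit-supplied Caco-2 barriers, run as the maker specifies; each compound reported as Papp.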

[4] = recombinant human TG2 10 nM, dansylcadaverine/dimethylcasein, read-out: IC50 TG2

Compound | IC50 [1, 4] [nM] | logD [2] | Papp [3] [×10⁻⁶ cm/s] | fold more potent compared to Ref. 3 ([1]; DCC-assay, ratio of IC50) [fold] | IC50 ([1]; DCC-assay, values in text, read-out: IC50) [nM]
CCNC(=O)C(=O)CC[C@H](NC(=O)c1coc(C(C)=O)n1)C(=O)Nc1cccn(CC(=O)NC23CC(C2)C3)c1=O [Compound I-89, (S)-2-(2-acetyloxazole-4-carboxamido)-N1-(1-(2-(bicyclo[1.1.1]pentan-1-ylamino)-2-oxoethyl)-2-oxo-1,2-dihydropyridin-3-yl)-N6-ethyl-5-oxohexanediamide] | < 150 | < 1 | < 1 | – | –
CCNC(=O)C(=O)CC[C@H](NC(=O)c1oc2ccccc2c1C)C(=O)Nc1cccn(CC(=O)NC23CC(C2)C3)c1=O [Compound I-88, (S)-N1-(1-(2-(bicyclo[1.1.1]pentan-1-ylamino)-2-oxoethyl)-2-oxo-1,2-dihydropyridin-3-yl)-N6-ethyl-2-(3-methylbenzofuran-2-carboxamido)-5-oxohexanediamide] | < 150 | < 1 | 1 to 10 | – | –
CCNC(=O)C(=O)CC[C@H](NC(=O)c1cncn1C)C(=O)Nc1cccn(CC(=O)NC23CC4CC(CC(Cl)(C4)C2)C3)c1=O [Compound I-9, (S)-N1-ethyl-N6-(1-(2-(3-chloroadamantane-1-amino)-2-oxoethyl)-2-oxo-1,2-dihydropyridin-3-yl)-5-(1-methyl-1H-imidazole-5-carboxamido)-2-oxohexanediamide] | 150 to 600 | < 1 | < 1 | – | –
CCNC(=O)C(=O)CC[C@H](NC(=O)c1cncn1C)C(=O)Nc1cccn(CC(=O)NC[C@@H]2CC[C@H]3C[C@@H]2C3(C)C)c1=O [Compound I-13, (S)-N1-(1-(2-(((1S,2R,5S)-6,6-dimethylbicyclo[3.1.1]heptan-2-yl)methylamino)-2-oxoethyl)-2-oxo-1,2-dihydropyridin-3-yl)-N6-ethyl-2-(1-methyl-1H-imidazole-5-carboxamido)-5-oxohexanediamide] | 600 to 3500 | 1 to 3 | < 1 | – | –
CCNC(=O)C(=O)CC[C@H](NC(=O)c1cc(C(=O)OC)cc([N+](=O)[O-])c1)C(=O)Nc1cccn(CC(=O)NC2(C(=O)OC)C3CC4CC(C3)CC2C4)c1=O (stereo partly drawn) [Compound I-64, (S)-methyl 3-(6-(ethylamino)-1-(1-(2-(methyl 2-aminoadamantane-2-carboxylate)-2-oxoethyl)-2-oxo-1,2-dihydropyridin-3-ylamino)-1,5,6-trioxohexan-2-ylcarbamoyl)-5-nitrobenzoate] | < 150 | 1 to 3 | 1 to 10 | – | –
CCNC(=O)C(=O)CC[C@H](NC(=O)c1[nH]c2ccccc2c1C)C(=O)Nc1cccn(CC(=O)NC2C3CC4CC(C3)CC2C4)c1=O (stereo partly drawn) [Compound I-37, (S)-N1-ethyl-N6-(1-(2-(2-adamantylamino)-2-oxoethyl)-2-oxo-1,2-dihydropyridin-3-yl)-5-(3-methyl-1H-indole-2-carboxamido)-2-oxohexanediamide] | < 150 | 3 to 5 | 1 to 10 | – | –
CCNC(=O)C(=O)CC[C@H](NC(=O)c1sc(C(F)(F)F)nc1Br)C(=O)Nc1cccn(CC(=O)NC2C3CC4CC(C3)CC2C4)c1=O (stereo partly drawn) [Compound I-41, (S)-2-(4-bromo-2-(trifluoromethyl)thiazole-5-carboxamido)-N6-ethyl-N1-(1-(2-(2-adamantylamino)-2-oxoethyl)-2-oxo-1,2-dihydropyridin-3-yl)-5-oxohexanediamide] | < 150 | 1 to 3 | 1 to 10 | – | –
CCNC(=O)C(=O)CC[C@H](NC(=O)c1cn[nH]n1)C(=O)Nc1cccn(CC(=O)NC2CC3CCC2CC3)c1=O (stereo partly drawn) [Compound I-74, (2S)-N1-(1-(2-(bicyclo[2.2.2]octan-2-ylamino)-2-oxoethyl)-2-oxo-1,2-dihydropyridin-3-yl)-N6-ethyl-5-oxo-2-(2H-1,2,3-triazole-4-carboxamido)hexanediamide] | 150 to 600 | < 1 | < 1 | – | –
CCNC(=O)C(=O)CC[C@H](NC(=O)[C@@H]1CCCN1C(C)=O)C(=O)Nc1cccn(CC(=O)NC2C3CC4CC(C3)CC2C4)c1=O (stereo partly drawn) [Compound I-55, (S)-2-((S)-1-acetylpyrrolidine-2-carboxamido)-N6-ethyl-N1-(1-(2-(2-adamantylamino)-2-oxoethyl)-2-oxo-1,2-dihydropyridin-3-yl)-5-oxohexanediamide] | 150 to 600 | 1 to 3 | < 1 | – | –
CCNC(=O)C(=O)CC[C@H](NC(=O)c1cncn1C)C(=O)Nc1cccn(CC(=O)NC23CC4CC(CC(F)(C4)C2)C3)c1=O [Compound I-8, (S)-N1-ethyl-N6-(1-(2-(3-fluoroadamantane-1-amino)-2-oxoethyl)-2-oxo-1,2-dihydropyridin-3-yl)-5-(1-methyl-1H-imidazole-5-carboxamido)-2-oxohexanediamide] | 150 to 600 | < 1 | < 1 | – | –
CCNC(=O)C(=O)CC[C@H](NC(=O)c1cc(C)oc1C)C(=O)Nc1cccn(CC(=O)NC2C3CC4CC(C3)CC2C4)c1=O (stereo partly drawn) [Compound I-49, (S)-2-(2,5-dimethylfuran-3-carboxamido)-N6-ethyl-N1-(1-(2-(2-adamantylamino)-2-oxoethyl)-2-oxo-1,2-dihydropyridin-3-yl)-5-oxohexanediamide] | < 150 | 1 to 3 | 1 to 10 | – | –
CCNC(=O)C(=O)CC[C@H](NC(=O)c1oc2ccccc2c1Cl)C(=O)Nc1cccn(CC(=O)NC2C3CC4CC(C3)CC2C4)c1=O (stereo partly drawn) [Compound I-32, (S)-2-(3-chlorobenzofuran-2-carboxamido)-N6-ethyl-N1-(1-(2-(2-adamantylamino)-2-oxoethyl)-2-oxo-1,2-dihydropyridin-3-yl)-5-oxohexanediamide] | < 150 | 3 to 5 | 1 to 10 | – | –

Further lines, results first:

IC50 [1, 4] [nM] | logD [2] | Papp [3] [×10⁻⁶ cm/s] | fold more potent compared to Ref. 3 ([1]; DCC-assay, ratio of IC50) [fold] | IC50 ([1]; DCC-assay, values in text, read-out: IC50) [nM] | Compound
600 to 3500 | < 1 | < 1 | – | – | CCNC(=O)C(=O)CC[C@H](NC(=O)c1cc2ccccc2nn1)C(=O)Nc1cccn(CC(=O)NC23CC(C2)C3)c1=O [Compound I-100, (S)-N1-(1-(2-(bicyclo[1.1.1]pentan-1-ylamino)-2-oxoethyl)-2-oxo-1,2-dihydropyridin-3-yl)-2-(cinnoline-3-carboxamido)-N6-ethyl-5-oxohexanediamide]
3500 to 10000 | < 1 | < 1 | – | – | CCNC(=O)C(=O)CC[C@H](NC(=O)c1cccnc1)C(=O)Nc1cccn(CC(=O)NCCc2ccccc2)c1=O [Ref. 4, reference compound]
< 150 | 1 to 3 | < 1 | 80 | 53 | CCC(CC)CNC(=O)Cn1cccc(NC(=O)[C@H](CC/C=C/C(=O)OC)NC(=O)c2cncn2C)c1=O [Ref. 2, reference compound]
150 to 600 | < 1 | < 1 | – | – | CCNC(=O)C(=O)CC[C@H](NC(=O)c1nncs1)C(=O)Nc1cccn(CC(=O)NC23CC(C2)C3)c1=O [Compound I-119, (S)-N1-(1-(2-(bicyclo[1.1.1]pentan-1-ylamino)-2-oxoethyl)-2-oxo-1,2-dihydropyridin-3-yl)-N6-ethyl-5-oxo-2-(1,3,4-thiadiazole-2-carboxamido)hexanediamide]
150 to 600 | < 1 | 1 to 10 | – | – | CCNC(=O)C(=O)CC[C@H](NC(=O)c1oc2ccccc2c1CC)C(=O)Nc1cccn(CC(=O)NC23CC(C2)C3)c1=O [Compound I-101, (S)-N1-(1-(2-(bicyclo[1.1.1]pentan-1-ylamino)-2-oxoethyl)-2-oxo-1,2-dihydropyridin-3-yl)-N6-ethyl-2-(3-ethylbenzofuran-2-carboxamido)-5-oxohexanediamide]
600 to 3500 | < 1 | < 1 | – | – | CCNC(=O)C(=O)CC[C@H](NC(=O)c1c[nH]c(C(N)=O)c1)C(=O)Nc1cccn(CC(=O)NC23CC(C2)C3)c1=O [Compound I-111, (S)-N4-(1-(1-(2-(bicyclo[1.1.1]pentan-1-ylamino)-2-oxoethyl)-2-oxo-1,2-dihydropyridin-3-ylamino)-6-(ethylamino)-1,5,6-trioxohexan-2-yl)-1H-pyrrole-2,4-dicarboxamide]
150 to 600 | 1 to 3 | 1 to 10 | – | – | CCNC(=O)C(=O)CC[C@H](NC(=O)c1cc2ccccc2n1CC)C(=O)Nc1cccn(CC(=O)NC23CC(C2)C3)c1=O [Compound I-102, (S)-N1-(1-(2-(bicyclo[1.1.1]pentan-1-ylamino)-2-oxoethyl)-2-oxo-1,2-dihydropyridin-3-yl)-N6-ethyl-2-(1-ethyl-1H-indole-2-carboxamido)-5-oxohexanediamide]

— patent publication US20240270715A1, “INHIBITORS OF TRANSGLUTAMINASES” (ZEDIRA GMBH, priority 2021, published 2024)
